Experimental data: patent US20240252488A1 (KOREA RESEARCH INSTITUTE OF CHEMICAL TECHNOLOGY, priority 2020, published 2024)

What was measured:
[1] = system: FADD−/− Jurkat cells; assay: Necroptosis inhibition assay, TNF-α-induced necroptosis (CellTiter-Glo 2.0); assay type: cell-based, human; details: TNF-α 15 ng/mL; for Necroptosis inhibition assay (Rescue %) 1 μM: compound 1 μM; for Necroptosis inhibition assay (Rescue %) 10 μM: compound 10 μM
In short: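 Tested at three fixed concentrations (0.1, 1, 10 μM final) with a 30-minute room-temperature preincubation ahead of 15 ng/mL TNF-α challenge lasting 20 to 24 hours. Inhibition rate and cytotoxicity derive from ATP luminescence.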

[2] = biological target: T1, MLKL (Homo sapiens, UniProt Q8NB16); assay: MLKL degradation assay in HepG2 cell line (western blot); assay type: cell-based; set-up: endogenous in cells; host or cells: HepG2 or HaCaT; details: cell line not given; for Degradation assay (Degradation %) 1 μM: compound 1 μM; for Degradation assay (Degradation %) 10 μM: compound 10 μM
T1 sequence (Q8NB16 1-471): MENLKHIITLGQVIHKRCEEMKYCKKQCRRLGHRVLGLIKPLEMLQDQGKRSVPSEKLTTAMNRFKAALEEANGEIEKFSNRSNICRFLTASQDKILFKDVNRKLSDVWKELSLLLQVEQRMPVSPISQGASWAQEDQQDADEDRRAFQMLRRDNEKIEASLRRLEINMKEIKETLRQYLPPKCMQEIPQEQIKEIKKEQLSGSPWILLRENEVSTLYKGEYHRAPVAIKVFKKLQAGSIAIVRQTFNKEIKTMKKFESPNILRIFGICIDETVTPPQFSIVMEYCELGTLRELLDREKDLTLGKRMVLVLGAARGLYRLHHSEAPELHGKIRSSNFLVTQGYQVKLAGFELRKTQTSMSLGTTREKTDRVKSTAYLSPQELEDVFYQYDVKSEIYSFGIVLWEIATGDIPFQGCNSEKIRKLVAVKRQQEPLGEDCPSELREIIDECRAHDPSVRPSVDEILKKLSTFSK
In short: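 Degradation is judged from MLKL band intensity on immunoblots of HepG2 lysates taken after 20-24 hours of compound at final 1 or 10 μM.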

[3] = biological target: T1, MLKL; assay: Measurement of binding affinity with MLKL receptor (competitive binding assay, Kd); set-up: made in house; host or cells: HEK 293 cell line (T7 phage in E. coli BL21-derived host is also described)
In short: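 Competition binding of kinase tagged with DNA for qPCR detection, expressed in HEK 293 cells, against immobilized ligand on beads. Final DMSO 0.9%. Kd derived from kinase amount in eluates measured by qPCR.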

SMILES	Necroptosis inhibition assay (Rescue %) 1 μM ([1]; FADD−/− Jurkat cells) [%]	Necroptosis inhibition assay (Rescue %) 10 μM ([1]; FADD−/− Jurkat cells) [%]	Degradation assay (Degradation %) 1 μM [2] [%]	Degradation assay (Degradation %) 10 μM [2] [%]	Kd [3] [nM]	Necroptosis inhibition assay (Rescue %) 1 μM [1] [%]	Necroptosis inhibition assay (Rescue %) 10 μM [1] [%]
Nc1ncc(-c2cnn(C3CCN(C(=O)C4CCN(C(=O)CNc5cccc6nnn(C7CCC(=O)NC7=O)c(=O)c56)CC4)CC3)c2)nc1C(=O)O[C@@H](C(=O)Nc1ccc(F)cc1)c1ccccc1 (stereo partly drawn) [TDH-413, (R)-2-((4-fluorophenyl)amino)-2-oxo-1-phenylethyl 3-amino-6-(1-(1-(1-((3-(2,6-dioxopiperidin-3-yl)-4-oxo-3,4-dihydrobenzo[d][1,2,3]triazin-5-yl)glycyl)piperidine-4-carbonyl)piperidin-4-yl)-1H-pyrazol-4-yl)pyrazine-2-carboxylate]	24.79	18.59	71.41	57.83	0.92	–	–
Nc1ncc(-c2cnn(C3CCN(CCC4CCN(C5=CC(=O)N(C6CCC(=O)NC6=O)C5=O)CC4)CC3)c2)nc1C(=O)O[C@@H](C(=O)Nc1ccc(F)cc1)c1ccccc1 (stereo partly drawn) [TDH-522, (R)-2-((4-fluorophenyl)amino)-2-oxo-1-phenylethyl 3-amino-6-(1-(1-(2-(1-(1-(2,6-dioxopiperidin-3-yl)-2,5-dioxo-2,5-dihydro-1H-pyrrol-3-yl)piperidin-4-yl)ethyl)piperidin-4-yl)-1H-pyrazol-4-yl)pyrazine-2-carboxylate]	21.52	−21.15	84.27	51.16	1.3	–	–
Nc1ncc(-c2cnn(C3CCN(CCC4CCN(C(=O)C5CN(C6=CC(=O)N(C7CCC(=O)NC7=O)C6=O)C5)CC4)CC3)c2)nc1C(=O)O[C@@H](C(=O)Nc1ccc(F)cc1)c1ccccc1 (stereo partly drawn) [TDH-531, (R)-2-((4-fluorophenyl)amino)-2-oxo-1-phenylethyl 3-amino-6-(1-(1-(2-(1-(1-(1-(2,6-dioxopiperidin-3-yl)-2,5-dioxo-2,5-dihydro-1H-pyrrol-3-yl)azetidine-3-carbonyl)piperidin-4-yl)ethyl)piperidin-4-yl)-1H-pyrazol-4-yl)pyrazine-2-carboxylate]	16.12	15.34	67.64	53.49	0.28	–	–
Nc1ncc(-c2cnn(C3CCN(CCOC4CCN(C(=O)c5ccc6c(N7CCC(=O)NC7=O)coc6c5)CC4)CC3)c2)nc1C(=O)O[C@@H](C(=O)Nc1ccc(F)cc1)c1ccccc1 [TDH-554, (R)-2-((4-fluorophenyl)amino)-2-oxo-1-phenylethyl 3-amino-6-(1-(1-(2-((1-(3-(2,4-dioxotetrahydropyrimidin-1(2H)-yl)benzofuran-6-carbonyl)piperidin-4-yl)oxy)ethyl)piperidin-4-yl)-1H-pyrazol-4-yl)pyrazine-2-carboxylate]	39.53	14.16	83.95	70.50	0.43	–	–
Nc1ncc(-c2cnn([C@@H]3CCN(CC4CCN(C(=O)CNc5ccc6c(c5)C(=O)N(C5CCC(=O)NC5=O)C6=O)CC4)C3)c2)nc1C(=O)OC(C(=O)Nc1ccc(F)cc1)c1ccccc1 (stereo partly drawn) [TDH-286, 2-((4-fluorophenyl)amino)-2-oxo-1-phenylethyl 3-amino-6-(1-((3R)-1-((1-((2-(2,6-dioxopiperidin-3-yl)-1,3-dioxoisoindolin-5-yl)glycyl)piperidin-4-yl)methyl)pyrrolidin-3-yl)-1H-pyrazol-4-yl)pyrazine-2-carboxylate]	–	–	71.83	71.94	12	88.45	79.75
